Values after ≈ are worked out from the molar mass of the structure shown. Read-outs that look alike come from different tables or passages of the source.
Tests used:
Test in all cases: MIC (Minimum Inhibitory Concentration)
Type in all cases: cell-based
[1] = tested on: Pasteurella multocida; conditions: read-out: MIC values
Description: (§1) In addition they may be used for combatting plant diseases, in particular as fungicides. A list of MIC (Minimum Inhibitory Concentration) values for a number of microorganisms is listed herebelow. The figures in the column headings refer to the compounds prepared according to the experimental examples in comparison with the spectrum of 1-[2-(2,4-dichlorophenyl)-2-{(2,4-dichlorophenyl)-methoxy} -ethyl7-1H-imidazole (better known under the name of miconazole, c.f. Merck Index 9th Ed. page 6047) or natamycin (pimaricin, c.f. Merck Index 9th Ed. page 7233).

[2] = tested on: Streptococcus haemolyticus; conditions: read-out: MIC values
Description: as §1

[3] = tested on: Trichophyton verrucosum
Description: as §1

[4] = tested on: Trichophyton equinum
Description: as §1

[5] = tested on: Trichophyton violoceum; conditions: read-out: MIC values
Description: as §1

[6] = tested on: Trichophyton schoenleinii; conditions: read-out: MIC values
Description: as §1

[7] = tested on: Trichophyton rubrum
Description: as §1

[8] = tested on: Trichophyton mentagrophytus
Description: as §1

[9] = tested on: Trichophyton quickeaneum; conditions: read-out: MIC values
Description: as §1

[10] = tested on: Trichophyton tonsurans; conditions: read-out: MIC values
Description: as §1

[11] = tested on: Candida albicans
Description: as §1

[12] = Streptococcus haemolyticus A 1088
[13] = Trichophyton equinum 182-76, read-out: MIC values
[14] = Trichophyton schoenleinii 435-63
[15] = Trichophyton rubrum 218-65, read-out: MIC values
[16] = Trichophyton rubrum 494-62, read-out: MIC values
[17] = Trichophyton rubrum A 810, read-out: MIC values
[18] = Trichophyton mentagrophytus 367-68, read-out: MIC values
[19] = Trichophyton mentagrophytus 421-67, read-out: MIC values
[20] = Trichophyton mentagrophytus A 3252, read-out: MIC values
[21] = Trichophyton mentagrophytus R 177, read-out: MIC values
[22] = Trichophyton mentagrophytus R 178, read-out: MIC values
[23] = Trichophyton quickeaneum A 2040
[24] = Candida albicans A 7, read-out: MIC values
[25] = Candida albicans A 3140, read-out: MIC values
[26] = Candida albicans A 3141, read-out: MIC values
[27] = Candida albicans A 3142, read-out: MIC values
[28] = Candida albicans A 3143, read-out: MIC values
[29] = Candida albicans A 3144, read-out: MIC values
[30] = Candida albicans A 3145, read-out: MIC values
[31] = Candida albicans A 3165, read-out: MIC values
[32] = Candida albicans A 3166, read-out: MIC values
[33] = Candida albicans A 3167, read-out: MIC values
[34] = Candida albicans A 3168, read-out: MIC values
[35] = Candida albicans A 3169, read-out: MIC values
[36] = Candida albicans A 3171, read-out: MIC values
[37] = Candida albicans A 3184, read-out: MIC values
[38] = Candida albicans A 3190, read-out: MIC values
[39] = Candida albicans A 3191, read-out: MIC values
[40] = Candida albicans A 3192, read-out: MIC values
[41] = Candida albicans A 3194, read-out: MIC values
[42] = Candida albicans A 3196, read-out: MIC values

[C-]#[N+]C(=C1CCOCC1)S(=O)(=O)c1ccc(C)cc1 [Example 14a, a-(tetrahydropyran-4-ylidene)-a-(4-toluenesulphonyl)-methyl-isocyanide]
MIC ([1]; Pasteurella multocida): 6 µg/mL (≈ 21.6 µM)
MIC ([2]; Streptococcus): 25 µg/mL (≈ 90.1 µM)
MIC ([3]; read-out: MIC values, Trichophyton verrucosum 134-66): 3 µg/mL (≈ 10.8 µM)
MIC ([3]; read-out: MIC values, Trichophyton verrucosum A 2922): 3 µg/mL (≈ 10.8 µM)
MIC ([4]; read-out: MIC values, Trichophyton equinum 182-76): 25 µg/mL (≈ 90.1 µM)
MIC ([4]; read-out: MIC values, Trichophyton equinum 441-51): 6 µg/mL (≈ 21.6 µM)
MIC ([5]; Trichophyton): 12.5 µg/mL (≈ 45.1 µM)
MIC ([6]; Trichophyton schoenleinii): 6 µg/mL (≈ 21.6 µM)
MIC ([7]; read-out: MIC values, Trichophyton rubrum 218-65): 3 µg/mL (≈ 10.8 µM)
MIC ([7]; read-out: MIC values, Trichophyton rubrum 494-62): 25 µg/mL (≈ 90.1 µM)
MIC ([7]; read-out: MIC values, Trichophyton rubrum A 810): 12.5 µg/mL (≈ 45.1 µM)
MIC ([8]; read-out: MIC values, Trichophyton mentagrophytus 367-68): 25 µg/mL (≈ 90.1 µM)
MIC ([8]; read-out: MIC values, Trichophyton mentagrophytus 421-67): 25 µg/mL (≈ 90.1 µM)
MIC ([8]; read-out: MIC values, Trichophyton mentagrophytus A 3252): 25 µg/mL (≈ 90.1 µM)
MIC ([8]; read-out: MIC values, Trichophyton mentagrophytus R 177): 12.5 µg/mL (≈ 45.1 µM)
MIC ([8]; read-out: MIC values, Trichophyton mentagrophytus R 178): 100 µg/mL (≈ 361 µM)
MIC ([9]; Trichophyton): 25 µg/mL (≈ 90.1 µM)
MIC ([10]; Trichophyton tonsurans): 0.75 µg/mL (≈ 2.7 µM)
MIC ([11]; read-out: MIC values, Candida albicans A 7): 12.5 µg/mL (≈ 45.1 µM)
MIC ([11]; read-out: MIC values, Candida albicans A 3140): 12.5 µg/mL (≈ 45.1 µM)
MIC ([11]; read-out: MIC values, Candida albicans A 3141): 12.5 µg/mL (≈ 45.1 µM)
MIC ([11]; read-out: MIC values, Candida albicans A 3142): 12.5 µg/mL (≈ 45.1 µM)
MIC ([11]; read-out: MIC values, Candida albicans A 3143): 12.5 µg/mL (≈ 45.1 µM)
MIC ([11]; read-out: MIC values, Candida albicans A 3144): 25 µg/mL (≈ 90.1 µM)
MIC ([11]; read-out: MIC values, Candida albicans A 3145): 12.5 µg/mL (≈ 45.1 µM)
MIC ([11]; read-out: MIC values, Candida albicans A 3165): 12.5 µg/mL (≈ 45.1 µM)
MIC ([11]; read-out: MIC values, Candida albicans A 3166): 6 µg/mL (≈ 21.6 µM)
MIC ([11]; read-out: MIC values, Candida albicans A 3167): 6 µg/mL (≈ 21.6 µM)
MIC ([11]; read-out: MIC values, Candida albicans A 3168): 6 µg/mL (≈ 21.6 µM)
MIC ([11]; read-out: MIC values, Candida albicans A 3169): 6 µg/mL (≈ 21.6 µM)
MIC ([11]; read-out: MIC values, Candida albicans A 3171): 6 µg/mL (≈ 21.6 µM)
MIC ([11]; read-out: MIC values, Candida albicans A 3184): 12.5 µg/mL (≈ 45.1 µM)
MIC ([11]; read-out: MIC values, Candida albicans A 3190): 12.5 µg/mL (≈ 45.1 µM)
MIC ([11]; read-out: MIC values, Candida albicans A 3191): 12.5 µg/mL (≈ 45.1 µM)
MIC ([11]; read-out: MIC values, Candida albicans A 3192): 12.5 µg/mL (≈ 45.1 µM)
MIC ([11]; read-out: MIC values, Candida albicans A 3194): 12.5 µg/mL (≈ 45.1 µM)
MIC ([11]; read-out: MIC values, Candida albicans A 3196): 12.5 µg/mL (≈ 45.1 µM)

[C-]#[N+]C(=C(C)c1cccs1)S(=O)(=O)c1ccc(C)cc1 [Example 17, 1-isocyano-1-(4-toluenesulphonyl)-2-(2-thienyl)-1-propene]
MIC ([1]; Pasteurella multocida A 723): 3 µg/mL (≈ 9.89 µM)
MIC [2, 12]: 6 µg/mL (≈ 19.8 µM)
MIC ([3]; Trichophyton verrucosum 134-66, read-out: MIC values): 0.75 µg/mL (≈ 2.47 µM)
MIC ([3]; Trichophyton verrucosum A 2922, read-out: MIC values): 0.4 µg/mL (≈ 1.32 µM)
MIC [4, 13]: > 100 µg/mL
MIC ([4]; Trichophyton equinum 441-51, read-out: MIC values): 0.75 µg/mL (≈ 2.47 µM)
MIC ([5]; Trichophyton violoceum 442-62): 3 µg/mL (≈ 9.89 µM)
MIC [6, 14]: 3 µg/mL (≈ 9.89 µM)
MIC [7, 15]: 6 µg/mL (≈ 19.8 µM)
MIC [7, 16]: 6 µg/mL (≈ 19.8 µM)
MIC [7, 17]: 12.5 µg/mL (≈ 41.2 µM)
MIC [8, 18]: 100 µg/mL (≈ 330 µM)
MIC [8, 19]: > 100 µg/mL
MIC [8, 20]: 6 µg/mL (≈ 19.8 µM)
MIC [8, 21]: > 100 µg/mL
MIC [8, 22]: > 100 µg/mL
MIC [9, 23]: 6 µg/mL (≈ 19.8 µM)
MIC ([10]; Trichophyton tonsurans 561-50): < 0.4 µg/mL
MIC [11, 24]: 0.75 µg/mL (≈ 2.47 µM)
MIC [11, 25]: 1.5 µg/mL (≈ 4.94 µM)
MIC [11, 26]: 1.5 µg/mL (≈ 4.94 µM)
MIC [11, 27]: 1.5 µg/mL (≈ 4.94 µM)
MIC [11, 28]: 1.5 µg/mL (≈ 4.94 µM)
MIC [11, 29]: 1.5 µg/mL (≈ 4.94 µM)
MIC [11, 30]: 3 µg/mL (≈ 9.89 µM)
MIC [11, 31]: 1.5 µg/mL (≈ 4.94 µM)
MIC [11, 32]: 1.5 µg/mL (≈ 4.94 µM)
MIC [11, 33]: 1.5 µg/mL (≈ 4.94 µM)
MIC [11, 34]: 3 µg/mL (≈ 9.89 µM)
MIC [11, 35]: 1.5 µg/mL (≈ 4.94 µM)
MIC [11, 36]: 1.5 µg/mL (≈ 4.94 µM)
MIC [11, 37]: 1.5 µg/mL (≈ 4.94 µM)
MIC [11, 38]: 1.5 µg/mL (≈ 4.94 µM)
MIC [11, 39]: 3 µg/mL (≈ 9.89 µM)
MIC [11, 40]: 1.5 µg/mL (≈ 4.94 µM)
MIC [11, 41]: 3 µg/mL (≈ 9.89 µM)
MIC [11, 42]: 1.5 µg/mL (≈ 4.94 µM)

[C-]#[N+]C(=CCCC)S(=O)(=O)c1ccc(C)cc1 [Example 24, 1-isocyano-1-(4-toluenesulphonyl)-1-pentene]
MIC ([1]; Pasteurella multocida A 723): 50 µg/mL (≈ 201 µM)
MIC [2, 12]: 100 µg/mL (≈ 401 µM)
MIC [4, 13]: 50 µg/mL (≈ 201 µM)
MIC ([4]; Trichophyton equinum 856-71, read-out: MIC values): 50 µg/mL (≈ 201 µM)
MIC ([5]; Trichophyton violoceum 442-62): 25 µg/mL (≈ 100 µM)
MIC [6, 14]: 25 µg/mL (≈ 100 µM)
MIC [7, 15]: 25 µg/mL (≈ 100 µM)
MIC [7, 16]: 50 µg/mL (≈ 201 µM)
MIC [7, 17]: 25 µg/mL (≈ 100 µM)
MIC [8, 18]: 100 µg/mL (≈ 401 µM)
MIC [8, 19]: 50 µg/mL (≈ 201 µM)
MIC [8, 20]: 25 µg/mL (≈ 100 µM)
MIC [8, 21]: 25 µg/mL (≈ 100 µM)
MIC [8, 22]: 25 µg/mL (≈ 100 µM)
MIC ([8]; Trichophyton mentagrophytus RRL 305, read-out: MIC values): 50 µg/mL (≈ 201 µM)
MIC [9, 23]: 100 µg/mL (≈ 401 µM)
MIC ([10]; Trichophyton tonsurans 561-50): 25 µg/mL (≈ 100 µM)
MIC [11, 24]: 25 µg/mL (≈ 100 µM)
MIC [11, 25]: 25 µg/mL (≈ 100 µM)
MIC [11, 26]: 25 µg/mL (≈ 100 µM)
MIC [11, 27]: 3 µg/mL (≈ 12 µM)
MIC [11, 28]: 12.5 µg/mL (≈ 50.1 µM)
MIC [11, 29]: 12.5 µg/mL (≈ 50.1 µM)
MIC [11, 30]: 12.5 µg/mL (≈ 50.1 µM)
MIC [11, 31]: 25 µg/mL (≈ 100 µM)
MIC [11, 32]: 50 µg/mL (≈ 201 µM)
MIC [11, 33]: 50 µg/mL (≈ 201 µM)
MIC [11, 34]: 50 µg/mL (≈ 201 µM)
MIC [11, 35]: 25 µg/mL (≈ 100 µM)
MIC [11, 36]: 25 µg/mL (≈ 100 µM)
MIC [11, 37]: 25 µg/mL (≈ 100 µM)
MIC [11, 38]: 25 µg/mL (≈ 100 µM)
MIC [11, 39]: 25 µg/mL (≈ 100 µM)
MIC [11, 40]: 25 µg/mL (≈ 100 µM)
MIC [11, 41]: 25 µg/mL (≈ 100 µM)
MIC [11, 42]: 25 µg/mL (≈ 100 µM)
